Measured values: BindingDB's records for doi:10.1016/j.ejmech.2020.112994 (North-West University, 2021)

Experiment: Inhibition of EGFR in human A-431 cells assessed as antiproliferative activity incubated for 48 hrs by MTS method

## COc1cc2c(Nc3ccc(Br)cc3F)ncnc2cc1OCC1CCN(C(=O)Cn2cncc2[N+](=O)[O-])CC1
  IC50: 1640 nM
